Source: patent US8729023B2 (priority 2002, dated 2014)
Read-outs that look alike come from different tables or passages of the source. *1 amine or outer side, *2 acyl side, *3 side chain or, on linkers, in order; H or OH if unused. Where a SMILES comes first, the peptide text is derived from it. Suc = O=C(CCC(=O)[*:2])[*:1]

What was measured:
[1] = Effect of IRL1620 on plasma pharmacokinetics of paclitaxel, HPLC-UV; assay type: in vivo, rat; conditions: normal or tumor bearing rats; paclitaxel i.v. 3 mg/kg 15 minutes after IRL1620 3 nmol/kg
Protocol: Virgin female Sprague Dawley rats (Harlan Co., Madison, Wis.), 48 days old (120-140 g) were used for this study. Upon arrival, all rats were housed three to a cage, in a room with controlled temperature (23±1° C.), humidity (50±10%) and artificial light (0600-1800 hr). The rats were given food and water ad libitum. The experiments were begun only after the rats have been acclimatized to the environment for at least 4 days.
N-methyl-n-nitrosourea (MNU) was administered at a dose of 50 mg/kg, i.p. and rats were palpated twice weekly. Once tumors reached about 75-100 mm^3, pharmacokinetic studies were performed.
HPLC-UV studies. […]
Plasma samples were analyzed for paclitaxel using an HPLC system. […] A 100 μL (lower standard curve and samples collected after IV administration) aliquot of the reconstituted material was injected into a 4 mm NovaPak 150×3.9 mm C18 column (Waters Associates, Milford, Mass.) preceded by a 4 mm NovaPak 20×3.9 mm C18 precolumn using a Waters 2695 separations module connected to a Waters 2487 absorbance detector set at 227 nm. […] Plasma concentrations for paclitaxel were calculated from the ratio of the area of the paclitaxel peak to the area of the N-cyclohexyl benzamide peak using least-squares linear regression and weighting by 1/x. Within day and between days variability measured by a coefficient of variation was <10%. […]

[2] = test system: JHU-4 (MAT-LyLu) prostate tumor; test: Effect of IRL1620 on [^14C]doxorubicin concentration in tumor and organs of prostate tumor bearing rats; assay type: in vivo, rat; conditions: for increase in concentration of [^14C]doxorubicin in tumor compared to saline treated rats: sacrifice 3 hours after
Protocol: Prostate tumors were induced in male Copenhagen rats using JHU-4 (MAT-LyLu) cells obtained from ATCC (Manassas, Va.). See Gaddipati et al., J Exp Ther Oncol, 4(3): 203-12 (2004) which is hereby incorporated by reference. The cells were maintained in RPMI 1640 medium supplemented with fetal bovine serum (10%) in a humidified incubator containing 5% CO2 at 37° C. Hair was shaved from the dorsal side of the neck, and animals were inoculated with 10,000 JHU-4 (MAT-LyLu) cells in 100 μl phosphate buffered saline by subcutaneous (s.c.) injection. Tumor appearance and location was monitored by manual palpation and tumor diameters were measured with a digital caliper. Experimental procedures began once tumor size reached about 200 mm^3.
Biodistribution Study. Tumor bearing rats were randomly grouped (N=6/group) to receive saline or IRL1620 (1, 3 or 6 nmol/kg) via the tail vein in a final volume of 0.2 ml. Rats from each group then received [^14C]doxorubicin (1 μCi/rat) i.v. in a final volume of 1.0 ml 15 minutes after saline or IRL1620 administration. Animals were then sacrificed 3 hours after [^14C]doxorubicin administration. The concentration of [^14C]doxorubicin in the tumor, heart, brain, kidneys, liver, lungs, bone marrow, prostate, skeletal muscles and spleen were examined. Specifically, tumor and organs were sliced into small pieces. The femurs from both legs were separated and weighed with bone marrow flushed out using a syringe containing tissue solubilizer. About 500 mg of tissue or tumor was placed in separate vials containing tissue solubilizer (6 ml) and incubated in a water bath at about 50° C. The vials were removed from the water bath after the tissue or tumor was dissolved and 1.2 ml of 10% glacial acetic acid was added. The contents of the vial were then equally divided into 3 vials and 15 ml of liquid scintillation cocktail (Safety Solve, RPI Corp, Chicago, Ill.) was added to each vial and kept overnight for equilibration. The radioactivity in the tubes was counted using a liquid scintillation counter (Beckman Coulter, LS 6500).

[3] = test system: MNU-induced breast tumors; conditions: IRL1620 3 nmol/kg alone; 5 doses; 30 days after final dose
[4] = test system: JHU-4 (MAT-LyLu) prostate tumor; conditions: IRL1620 3 nmol/kg alone; day 19
[5] = test system: JHU-4 (MAT-LyLu) prostate tumor; conditions: IRL1620 3 nmol/kg alone; day 16
[6] = test system: human melanoma cells (UISO-MEL-2) tumor; conditions: melanoma mice
[7] = test system: MNU-induced breast tumor; test: Effect of IRL1620 on bio-distribution of [^3H] paclitaxel in tumor and major organs of breast tumor bearing rats; conditions: IRL1620 3 nmol/kg
[8] = paclitaxel plasma, three compartmental model, tumor bearing rats, after vehicle or IRL1620 3 nmol/kg

With CC[C@H](C)[C@H](NC(=O)[C@H](CC(=O)O)NC(=O)[C@H](CC(C)C)NC(=O)[C@H](Cc1c[nH]cn1)NC(=O)[C@H](C)NC(=O)[C@H](Cc1ccccc1)NC(=O)[C@H](Cc1ccc(O)cc1)NC(=O)[C@@H](NC(=O)[C@H](C)NC(=O)[C@H](CCC(=O)O)NC(=O)[C@H](CCC(=O)O)NC(=O)[C@H](CC(=O)O)NC(=O)CCC(=O)O)C(C)C)C(=O)N[C@H](C(=O)N[C@@H](Cc1c[nH]c2ccccc12)C(=O)O)[C@@H](C)CC [IRL1620, N-suc-[Glu9, Ala11, 15]ET-1 (8-21)] (Suc-DEEAVYFAHLDIIW-OH) as the compound, how does the “pharmacokinetic profile of paclitaxel” value [1] read?
The value was “not affected”.

And the “change in the uptake of [^14C]doxorubicin in tumor or other tissues” value ([2]; 1 nmol/kg IRL1620 15 minutes before [^14C]doxorubicin)?
Its value is “did not produce any significant change”.

And the “increase in concentration of [^14C]doxorubicin in tumor compared to saline treated rats” value ([2]; 3 nmol/kg IRL1620 15 minutes before [^14C]doxorubicin)?
Its value is 115.85%.

And the “increase in concentration of [^14C]doxorubicin in tumor compared to saline treated rats” value ([2]; 6 nmol/kg IRL1620 15 minutes before [^14C]doxorubicin)?
Its value is 80.02%.

And the “accumulation of [^14C]doxorubicin in the heart, brain, kidneys, liver, lungs, bone marrow, prostate, skeletal muscles or spleen compared to control animals” value ([2]; IRL1620 1, 3 or 6 nmol/kg)?
Its value is “No dose of IRL1620 produced significant increases”.

And the “effect on the pharmacokinetic profile of paclitaxel” value (non-compartmental analysis, tumor bearing rats, IRL1620 3 nmol/kg i.v. 15 minutes before paclitaxel)?
The value was “did not affect”.

What about the Lambda (paclitaxel plasma, non-compartmental, tumor bearing rats, paclitaxel i.v. 15 minutes after vehicle or IRL1620 3 nmol/kg) of the same compound?
The Lambda was 0.10 ± 0.05.

What about the K10 [8] of the same compound?
The K10 was 1.72 ± 0.57.

And the K12 [8]?
The K12 was 34.93 ± 23.26.

What about the K13 [8] of the same compound?
The K13 was 3.92 ± 1.88.

What about the “paclitaxel compartmental pharmacokinetic parameters in the IRL1620 treated group versus the vehicle treated group” value (three compartmental model, IRL1620 3 nmol/kg 15 minutes before paclitaxel) of the same compound?
Its value is “not significantly different”.

What about the “increase in body weight compared to baseline” value [3] of the same compound?
Its value is less than 10%.

And the body weight [4]?
The body weight was 175.72 ± 2.35 g.

What about the body weight [5] of the same compound?
The body weight was 202.2 ± 7.28 g.

What about the “percent difference in body weight gain from the beginning of the experiment” value [5] of the same compound?
Its value is 14.19±1.66%.

What about the “accumulation of [^3H]paclitaxel in the heart, kidneys, liver, lungs or spleen compared to saline treated animals” value ([6]; IRL1620 3 nmol/kg) of the same compound?
Its value is “did not produce significant increases”.

And the “increase in tumor [^3H]paclitaxel compared to vehicle treated mice” value ([6]; IRL1620 3 nmol/kg 15 minutes before [^3H]paclitaxel)?
Its value is 572.99%.

What about the “tumor [^3H]paclitaxel concentration” value ([6]; IRL1620 3 nmol/kg 15 minutes before [^3H]paclitaxel, sacrifice 3 hours after) of the same compound?
The value was 274.28 nmol/g tissue.

What about the “accumulation of paclitaxel in the liver, lungs, kidneys and spleen compared to control animals” value [7] of the same compound?
Its value is “did not significantly alter”.

What about the “increase in tumor paclitaxel concentration compared to saline treated rats” value ([7]; [^3H] paclitaxel administered 15 minutes after IRL1620, sacrifice 3 hours after paclitaxel) of the same compound?
Its value is 277.1%.

And the “increase in tumor paclitaxel concentration compared to saline treated rats” value ([7]; [^3H] paclitaxel administered 240 minutes after IRL1620)?
Its value is 34.7%.
